Reference: paper PMC6895199, “A new antiviral scaffold for human norovirus identified with computer-aided approaches on the viral polymerase” (Scientific Reports, 2019)

Test system: MNV
Test: MNV CPE reduction assay (MTS) in RAW 264.7 cells
Assay type: cell-based, mouse norovirus (MNV-1.CW1)
Details: Norovirus, RAW264.7, in Mus musculus, Table 2, RAW 264.7, range 0.6–100 µM, at least three independent experiments
Procedure, shortened: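 MNV-1.CW1-infected RAW 264.7 cells treated at eight concentrations (0.6–100 µM), 2′-C-methylcytidine as positive control. Viability read by MTS/PMS at OD 498 nm after 2 h; %CPE reduction normalised to uninfected and infected untreated cells, EC50 = concentration protecting 50% of cells from virus-induced CPE.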

Row | Compound | EC50
1 | O=C(NC(=S)Nc1ccc(N2CCN(C(=O)c3nccs3)CC2)cc1)c1sc2ccccc2c1Cl [Compound 56, 3-Chloro-N-((4-(4-(thiazole-2-carbonyl)piperazin-1-yl)phenyl)carbamothioyl)benzo[b]thiophene-2-carboxamide] | 66.1 ± 12.3 µM
2 | O=C(NC(=S)Nc1ccc(N2CCN(C(=O)c3cccs3)CC2)cc1)c1sc2ccccc2c1Cl [Compound 48, 3-Chloro-N-((4-(4-(thiophene-2-carbonyl)piperazin-1-yl)phenyl)carbamothioyl)benzo[b]thiophene-2-carboxamide, reference compound] | 58.2 ± 20.7 µM
3 | Cc1ccc(C(=O)NC(=S)Nc2ccc(N3CCN(C(=O)c4cccs4)CC3)cc2)cc1 [Compound 52, 4-Methyl-N-((4-(4-(thiophene-2-carbonyl)piperazin-1-yl)phenyl)carbamothioyl)benzamide] | 45.1 ± 10.8 µM
